The source made the active and inactive calls. The rule behind the calls is not given here.
Test system: virus-infected cells, titer reduction, log titer change
Test: antiviral yield reduction in infected cells – cell-based, 55 compounds from dose-response study, confirmation (AID 2024)

Row | SMILES | log titer change, negative = reduction (at 20 µM (top of the series)) | log titer change, negative = reduction (at 10 µM (top of the series))
1 | CCCN(CCC)CCCNC(=S)Nc1ccc2nc(N3CCCC3)cc(C)c2c1 | -0.33 (inactive) | 
2 | CN(C)CCCN1c2ccc([N+](=O)[O-])cc2CCc2cc([N+](=O)[O-])ccc21 | 0 (inactive) | 
3 | CCN(CC)CCNC(=O)C1CCN(S(=O)(=O)c2c(C)noc2/C=C/c2ccccc2F)CC1 | 0.27 (inactive) | 
4 | CN(C)CCCNC(=O)c1cc2sc3ccccc3c2s1 | -0.17 (inactive) | 
5 | CN(C)CCCNC(=S)N1CCN(c2nc(-c3ccccc3)cs2)CC1 | -0.02 (inactive) | 
6 | Cn1c(=O)[nH]c(=O)c2c1nc(N1CCN(C(c3ccccc3)c3ccccc3)CC1)n2CCO |  | -1.17
7 | COc1cc(CNC(C)(C)CO)cc(Br)c1OCc1ccc(Cl)cc1 | 0.27 (inactive) | 
8 | CC1=CC(C)(C)N2C(=O)C3(NCCc4c3[nH]c3ccccc43)c3cc(C)cc1c32 (stereo not drawn) |  | -1.27
9 | O=C(CN1C(=O)/C(=C/c2ccc(C(F)(F)F)cc2)Sc2ccccc21)NCCCN1CCOCC1 | -0.16 (inactive) | 
10 | Brc1ccc2c(c1)CN1CCCC1=N2 | -1.9 | 
11 | CC1CCCN(CCCNC(=O)c2cc3c(s2)-c2ccccc2OC3)C1 (stereo not drawn) | -0.41 (inactive) | 
12 | Cc1c(Cc2ccccc2)c(NCCN(C)C)n2c(nc3ccccc32)c1C#N | 0.43 (inactive) | 
13 | CN(C)CC(O)COc1ccc(C(C)(C)c2ccc(OCC(O)CN(C)C)cc2)cc1 (stereo not drawn) | -1.17 | 
14 | Cc1ccc(C)c(N2CCN(CCCNC(=O)CCC(=O)N3CCOc4ccc(Cl)cc43)CC2)c1 | -0.03 (inactive) | 
15 | Cc1ccc2oc(=O)c3cc(C(=O)NCCCN4CC(C)CC(C)C4)sc3c2c1 (stereo not drawn) | 0.31 (inactive) | 
16 | Cc1c(NC(=O)COC(=O)c2cc(-c3ccc(-c4ccccc4)cc3)nc3ccccc23)c(=O)n(-c2ccccc2)n1C | 0.31 (inactive) | 
17 | CCN(CC)CCn1c(=N)n(CC(=O)c2ccc(Br)s2)c2ccccc21 | 0.31 (inactive) | 
18 | CCOc1ccc(/C=C/c2nc(C#N)c(NCCCN(C)C)o2)cc1 | 0.31 (inactive) | 
19 | CCOc1ccc(NC(=O)c2c(NC(=O)CN3CCN(C)CC3)sc3c2CCC3)cc1 | 0 (inactive) | 
20 | CCN1CCN(c2ncc(C(=O)Nc3cc(Cl)c(OC)cc3OC)c3ccccc23)CC1 | -0.17 (inactive) | 
21 | CCCN1CCN(CCCNC(=O)c2cc3c(s2)-c2ccccc2OC3)CC1 | 0 (inactive) | 
22 | CN1CCN(CCNC(=O)c2ccc3nc(-c4ccc(F)cc4)c(-c4ccc(F)cc4)nc3c2)CC1 | -0.03 (inactive) | 
23 | COc1ccc(C2c3ccc4ccccc4c3Oc3ncn(CCCO)c(=N)c32)cc1OC (stereo not drawn) | 0.54 (inactive) | 
24 | CC1CCCC(C)N1CCCNC(=O)c1cc2c(s1)-c1ccccc1OC2 (stereo not drawn) | 0.43 (inactive) | 
25 | CCN(CC)CCCC(C)NC(=O)c1c(NC(=O)c2ccccc2)sc2c1CCCC2 (stereo not drawn) | 0.55 (inactive) | 
26 | COc1ccc(C2c3ccc4ccccc4c3Oc3ncn(CCO)c(=N)c32)cc1 (stereo not drawn) | 0.39 (inactive) | 
27 | Cc1ccc(-c2cc(C(=O)NCCCN3CCCC3)c3ccccc3n2)cc1C | 0.19 (inactive) | 

Row | SMILES | log titer change, negative = reduction (at 20 µM (top of the series)) | log titer change, negative = reduction (at 10 µM (top of the series))
28 | COc1ccc(-c2csc(N(CCCN(C)C)C(=O)c3ccccc3Cl)n2)cc1 | -1.5 | 
29 | CCN(CC)CCCNC(=S)N1CCN(c2nc(-c3ccccc3)cs2)CC1 | -0.57 (inactive) | 
30 | O=C(Oc1ccccc1)c1ccc(-n2cnnn2)cc1 | -0.73 (inactive) | 
31 | CCOC(=O)c1c(CN2CCN(CCO)CC2)n(-c2ccccc2)c2cc(Br)c(O)cc12 | -0.07 (inactive) | 
32 | CCN1CCN(CCCNC(=O)C2CCCN(c3nc4c(C)cc(C)cc4s3)C2)CC1 (stereo not drawn) | -0.36 (inactive) | 
33 | CCN(CC)CCCNC(=O)c1cc2c(-c3cccc(OC)c3)nn(C)c2s1 | 0.93 (inactive) | 
34 | CC(C)c1oc(=O)cc2c1[C@@H](O)[C@H]1OC(=O)[C@@]3(C)CC[C@@H](O)[C@@]2(C)C13 (stereo partly drawn) | -1.17 | 
35 | CC1CCN(CCCNC(=O)c2cc3c(s2)-c2ccccc2OC3)CC1 | 0.43 (inactive) | 
36 | CCN(CC)CCNC(=O)c1sc2ncn(CC(=O)Nc3ccc(C)c(Cl)c3)c(=O)c2c1C |  | 0.5 (inactive)
37 | Cc1cccn2c(=O)c3cc(C(=O)NCCN4CCOCC4)c(=N)n(Cc4ccc(F)cc4)c3nc12 | -0.03 (inactive) | 
38 | CN(CCCNC(=O)c1cc2c(Cl)nc3ccccc3c2s1)Cc1ccccc1 | 0.43 (inactive) | 
39 | CCN1CCN(CCCNC(=O)c2cc3c(s2)-c2ccccc2OC3)CC1 |  | -0.5 (inactive)
40 | O=C(CSc1nc2ccccc2c(=O)n1-c1ccc(F)cc1F)Nc1ccc2c(c1)CCC2 | -2.18 | 
41 | COc1ccc(C2c3c(ncn(CCN4CCOCC4)c3=N)Oc3ccc4ccccc4c32)cc1 (stereo not drawn) | 0.93 (inactive) | 
42 | CC(C)c1oc(=O)cc2c1[C@@H](O)[C@H]1OC(=O)[C@@]3(C)C[C@@H](O)[C@@H](O)[C@@]2(C)C13 (stereo partly drawn) | -0.25 (inactive) | 
43 | Cc1ccc2cc(C#N)c(N3CCCN(C(=S)NCCCN(C)C)CC3)nc2c1 | -0.02 (inactive) | 
44 | N=C1C(c2nc(-c3ccc(Cl)cc3)cs2)=C(O)CN1CCCN1CCOCC1 | 1.48 (inactive) | 
45 | CCN1CCN(CCCNC(=O)c2ccc3c(Cl)c4c(nc3c2)CCCC4)CC1 | -0.02 (inactive) | 
46 | CN1CCN(CCCN2c3ccccc3Sc3ccc(Cl)cc32)CC1 | -0.64 (inactive) | 
47 | O=C(CSc1nc2ccccc2c(=O)n1-c1ccc(F)cc1)Nc1ccc2c(c1)CCC2 | -0.69 (inactive) | 
48 | Cc1cc(C)cc(SCc2noc(C(=O)NCCN(C)C)c2C(=O)NCCN(C)C)c1 | -0.17 (inactive) | 
49 | CN(C)CCCN(C(=O)c1ccc2c(c1)OCCO2)c1nc2ccc(Cl)cc2s1 | -0.33 (inactive) | 
50 | COc1cc2c(OC(C)=O)c3c(c(-c4ccc5c(c4)OCO5)c2cc1OC)C(=O)OC3 | -2 | 
51 | CC[C@@H](C(=O)[C@@H](C)[C@@H](O)[C@H](C)CCc1ccc(C)c(O)c1C(=O)O)[C@H]1O[C@](CC)([C@H]2CC[C@](O)(CC)[C@H](C)O2)C[C@@H]1C | 0.14 (inactive) | 
52 | NCCCNc1nc(N)c([N+](=O)[O-])c(NC2CCCCC2)n1 | -4.74 | 
53 | Cc1ccc2[nH]c(=O)c(CN(CCCN(C)C)C(=O)Nc3ccc(Cl)cc3)cc2c1 | -2.15 | 

Reference: PubChem BioAssay AID2024 (Southern Research Specialized Biocontainment Screening …, 2009)
